Columns and labels:
Assay type in all cases: cell-based, human
SW620 cells [1] = assay: Ribosome profiling of SW620 cells (transcription, translational rate, translational efficiency); conditions: 8 hours
Description: SW620 human colon cancer cells were cultured in DMEM media supplemented with penicillin G (100 U/ml), streptomycin (100 μg/ml), and 10% FBS in a humidified atmosphere of 5% CO2 maintained at 37° C.
(§1) SW620 cells (ATCC, passage 12) were seeded at about 75% confluence 24 hrs prior to drug treatment. […] About 6×10^6 cells/10 cm plate and about 1×10^6 cells/well of a 6-well plate were harvested for ribosome profiling and Western blot analysis, respectively, following drug treatment.

SW620 cells [2] = assay: Western blot of phosphorylation of protein translation components in SW620 cells
Description: as §1
Cells were washed with PBS and lysed in 1× cell lysis buffer (Cell Signaling) for 15 min at 4° C. Lysates were sonicated briefly, clarified by centrifugation for 15 min at 14, 000 rpm, and supernatants were then collected. Protein concentration in the soluble fraction was determined by BCA protein assay (Thermo Scientific). A 4-20% Bis-Tris gradient gel (Invitrogen) was used to resolve 20 μg of protein and transferred to nitrocellulose membrane. The resulting membranes were blocked for 1 hr at room temperature with Odyssey blocking solution (LI-COR) and then incubated with primary antibodies at 4° C. overnight. The following day, the blots were washed 3 times, 10 min each in TBST, and incubated with IR-conjugated goat anti-rabbit IgG secondary antibody (IRDye 800 CW at 1:20,000; LI-COR) for 1 hour at room temperature. The blots were then washed, scanned, and specific proteins were detected using the LI-COR Odyssey infrared imager. The following antibodies from Cell Signaling were used at 1:1000 dilution: anti-phospho-eIF4E(Ser209)(#9741), anti-phospho-rpS6(Ser235/236)(#4858), anti-phospho-ERK1/2(Thr202/Tyr204)(#4370), anti-phospho-p70S6K(Thr421/Ser424)(#9204), anti-phospho-p90RSK(Thr359/Ser363)(#9344), anti-phospho-4EBP(Ser65), anti-phospho-pAKT(Ser473), anti-phospho-eIF4E(Ser209), and anti-β-actin (#4970). Actin was used as a loading amount control.

SW620 cells [3] = assay: Proliferation assay on SW620 cells

CC(=O)Nc1cccc(-n2c(=O)n(C3CC3)c(=O)c3c(Nc4ccc(I)cc4F)n(C)c(=O)c(C)c32)c1 [GSK212]
Profile TE (SW620 cells [1]; gene LIF, 250 nM): 0.9 log2 MEKi/DMSO | Profile rna (SW620 cells [1]; gene LIF, 250 nM): −1.7 log2 MEKi/DMSO | Profile rpf (SW620 cells [1]; gene LIF, 250 nM): −0.9 log2 MEKi/DMSO | Profile TE (SW620 cells [1]; gene LNK/SH2B3, 250 nM): −0.9 log2 MEKi/DMSO | Profile rna (SW620 cells [1]; gene LNK/SH2B3, 250 nM): 0.2 log2 MEKi/DMSO | Profile rpf (SW620 cells [1]; gene LNK/SH2B3, 250 nM): −0.7 log2 MEKi/DMSO | Profile TE (SW620 cells [1]; gene MAFF, 250 nM): 0.6 log2 MEKi/DMSO | Profile rna (SW620 cells [1]; gene MAFF, 250 nM): −1.7 log2 MEKi/DMSO | Profile rpf (SW620 cells [1]; gene MAFF, 250 nM): −1.1 log2 MEKi/DMSO | Profile TE (SW620 cells [1]; gene MAP2K3, 250 nM): 1.0 log2 MEKi/DMSO | Profile rna (SW620 cells [1]; gene MAP2K3, 250 nM): −1.6 log2 MEKi/DMSO | Profile rpf (SW620 cells [1]; gene MAP2K3, 250 nM): −0.6 log2 MEKi/DMSO | Profile TE (SW620 cells [1]; gene MYC, 250 nM): −0.3 log2 MEKi/DMSO | Profile rna (SW620 cells [1]; gene MYC, 250 nM): −1.3 log2 MEKi/DMSO | Profile rpf (SW620 cells [1]; gene MYC, 250 nM): −1.6 log2 MEKi/DMSO | Profile TE (SW620 cells [1]; gene PHLDA2, 250 nM): 1.1 log2 MEKi/DMSO | Profile rna (SW620 cells [1]; gene PHLDA2, 250 nM): −2.1 log2 MEKi/DMSO | Profile rpf (SW620 cells [1]; gene PHLDA2, 250 nM): −1.1 log2 MEKi/DMSO | Profile TE (SW620 cells [1]; gene PLK3, 250 nM): 0.7 log2 MEKi/DMSO | Profile rna (SW620 cells [1]; gene PLK3, 250 nM): −3.1 log2 MEKi/DMSO | Profile rpf (SW620 cells [1]; gene PLK3, 250 nM): −2.4 log2 MEKi/DMSO | Profile TE (SW620 cells [1]; gene POLR1C, 250 nM): 0.2 log2 MEKi/DMSO | Profile rna (SW620 cells [1]; gene POLR1C, 250 nM): −0.8 log2 MEKi/DMSO | Profile rpf (SW620 cells [1]; gene POLR1C, 250 nM): −0.6 log2 MEKi/DMSO | Profile TE (SW620 cells [1]; gene POLR3G, 250 nM): −0.1 log2 MEKi/DMSO | Profile rna (SW620 cells [1]; gene POLR3G, 250 nM): −0.7 log2 MEKi/DMSO | Profile rpf (SW620 cells [1]; gene POLR3G, 250 nM): −0.8 log2 MEKi/DMSO | Profile TE (SW620 cells [1]; gene PPAN, 250 nM): −0.7 log2 MEKi/DMSO | Profile rna (SW620 cells [1]; gene PPAN, 250 nM): −0.4 log2 MEKi/DMSO | Profile rpf (SW620 cells [1]; gene PPAN, 250 nM): −1.1 log2 MEKi/DMSO | Profile TE (SW620 cells [1]; gene PPAT, 250 nM): −0.3 log2 MEKi/DMSO | Profile rna (SW620 cells [1]; gene PPAT, 250 nM): −0.4 log2 MEKi/DMSO | Profile rpf (SW620 cells [1]; gene PPAT, 250 nM): −0.7 log2 MEKi/DMSO | Profile TE (SW620 cells [1]; gene PYCRL, 250 nM): 0.1 log2 MEKi/DMSO | Profile rna (SW620 cells [1]; gene PYCRL, 250 nM): −0.2 log2 MEKi/DMSO | Profile rpf (SW620 cells [1]; gene PYCRL, 250 nM): 0.0 log2 MEKi/DMSO | Profile TE (SW620 cells [1]; gene RRS1, 250 nM): 0.1 log2 MEKi/DMSO | Profile rna (SW620 cells [1]; gene RRS1, 250 nM): −0.9 log2 MEKi/DMSO | Profile rpf (SW620 cells [1]; gene RRS1, 250 nM): −0.8 log2 MEKi/DMSO | Profile TE (SW620 cells [1]; gene SEMA6A, 250 nM): −1.5 log2 MEKi/DMSO | Profile rna (SW620 cells [1]; gene SEMA6A, 250 nM): 2.3 log2 MEKi/DMSO | Profile rpf (SW620 cells [1]; gene SEMA6A, 250 nM): 0.7 log2 MEKi/DMSO | Profile TE (SW620 cells [1]; gene SLC1A5, 250 nM): −0.3 log2 MEKi/DMSO | Profile rna (SW620 cells [1]; gene SLC1A5, 250 nM): −0.1 log2 MEKi/DMSO | Profile rpf (SW620 cells [1]; gene SLC1A5, 250 nM): −0.5 log2 MEKi/DMSO | Profile TE (SW620 cells [1]; gene SLC4A7, 250 nM): −0.9 log2 MEKi/DMSO | Profile rna (SW620 cells [1]; gene SLC4A7, 250 nM): −0.2 log2 MEKi/DMSO | Profile rpf (SW620 cells [1]; gene SLC4A7, 250 nM): −1.1 log2 MEKi/DMSO | Profile TE (SW620 cells [1]; gene SPRED2, 250 nM): −1.3 log2 MEKi/DMSO | Profile rna (SW620 cells [1]; gene SPRED2, 250 nM): −2.1 log2 MEKi/DMSO | Profile rpf (SW620 cells [1]; gene SPRED2, 250 nM): −3.5 log2 MEKi/DMSO | Profile TE (SW620 cells [1]; gene SPRY2, 250 nM): 0.4 log2 MEKi/DMSO | Profile rna (SW620 cells [1]; gene SPRY2, 250 nM): −1.7 log2 MEKi/DMSO | Profile rpf (SW620 cells [1]; gene SPRY2, 250 nM): −1.3 log2 MEKi/DMSO | Profile TE (SW620 cells [1]; gene SPRY4, 250 nM): −2.0 log2 MEKi/DMSO | Profile rna (SW620 cells [1]; gene SPRY4, 250 nM): −5.2 log2 MEKi/DMSO | Profile rpf (SW620 cells [1]; gene SPRY4, 250 nM): −7.1 log2 MEKi/DMSO | Profile TE (SW620 cells [1]; gene TNC, 250 nM): −1.6 log2 MEKi/DMSO | Profile rna (SW620 cells [1]; gene TNC, 250 nM): 1.1 log2 MEKi/DMSO | Profile rpf (SW620 cells [1]; gene TNC, 250 nM): −0.5 log2 MEKi/DMSO | Profile TE (SW620 cells [1]; gene TNFRSF12A, 250 nM): 0.2 log2 MEKi/DMSO | Profile rna (SW620 cells [1]; gene TNFRSF12A, 250 nM): −2.2 log2 MEKi/DMSO | Profile rpf (SW620 cells [1]; gene TNFRSF12A, 250 nM): −2.0 log2 MEKi/DMSO | Profile TE (SW620 cells [1]; gene WDR3, 250 nM): −1.0 log2 MEKi/DMSO | Profile rna (SW620 cells [1]; gene WDR3, 250 nM): 0.0 log2 MEKi/DMSO | Profile rpf (SW620 cells [1]; gene WDR3, 250 nM): −1.0 log2 MEKi/DMSO | Profile TE (SW620 cells [1]; gene YRDC, 250 nM): 0.1 log2 MEKi/DMSO | Profile rna (SW620 cells [1]; gene YRDC, 250 nM): −0.7 log2 MEKi/DMSO | Profile rpf (SW620 cells [1]; gene YRDC, 250 nM): −0.6 log2 MEKi/DMSO | phosphorylation of S6, eIF4E and 4EBP1 (SW620 cells [2]; 25 nM to 100 nM (data not shown)): little or no effect | Phosphorylation of ERK and p90RSK (SW620 cells [2]; 250 nM, 8 hrs): completely inhibited | phosphorylation of eIF4E (SW620 cells [2]; 250 nM, 8 hrs): partial inhibition | phosphorylation of the ribosomal protein S6 (rpS6) and S6K (p70RSK) (SW620 cells [2]; 250 nM, 8 hrs): only partial inhibition | inhibition of proliferation or induction of apoptosis (SW620 cells [3]; 250 nM for 8 hours): No evidence | potency in 72 hour proliferation assays (SW620 cells [3]; 72 hour (data not shown)): 20 to 30 nM
